Measurements published in patent US20210290816A1, “LIQUID EMBOLICS” (MicroVention, Inc., priority 2020, published 2021).
Counter-ions that a name gives are not always drawn.

Experiments:
[1] = In vitro elution of paclitaxel from PHIL® solution; type: physicochemical; conditions: 50 mg in 1 mL 25 wt % PHIL®, 199 mL 45:55 acetonitrile/10 mM potassium phosphate buffer pH 4.5, room temperature
Description: Fifty mg of paclitaxel are dissolved in 1 mL of 25 wt % PHIL® solution, which includes triiodophenol-(lactide-co-glycolide) acrylate and hydroxyethyl methacrylate in dimethyl sulfoxide. The 1 mL of 25 wt % PHIL®/Paclitaxel solution is precipitated in 199 mL of a dissolution medium, consisting of 45:55 acetonitrile/10 mM potassium phosphate buffer solution pH 4.5 at room temperature. At 2, 5, 9, 14, 20, 27, 35, 44, 54, 65 and 90 minutes, 1 mL of the supernatant is pipetted out and placed in a HPLC vial. The concentration of paclitaxel in each sample is determined using an Agilent 1100 HPLC system. The chromatographic analysis is performed with an Agilent Extended-C18 column (4.6 mm×50 mm, 3.5 μm). The mobile phase includes 50% acetonitrile and 50% 5% acetonitrile in water delivered at 1 mL/min. The injection volume is 10 μL and the wavelength of the ultraviolet detector was 227 nm. The calibration curve is prepared from 5 to 500 ppm of paclitaxel. The amount of paclitaxel released and relative percentage are calculated from the concentration data.

[2] = In vitro elution of oxaliplatin from PHIL® solution (ICP-MS platinum); type: physicochemical; conditions: 50 mg in 1 mL 25 wt % PHIL®, 50 mL PBS replaced at each time point, room temperature
Description: The remaining supernatant is poured out and the precipitates are mixed with a fresh 50 mL of the dissolution medium at room temperature.
Samples are prepared for ICP-MS analysis to measure the platinum concentration in the supernatant by mixing a sample portion (1 mL) with 4 mL of 2% nitric acid (5-fold dilution) or a sample portion (2.5 mL) with 0.05 mL of 2% nitric acid (undiluted). The calibration curve is prepared from 0.5 to 100 ppm of platinum.

[3] = In vitro elution of irinotecan from PHIL® solution; type: physicochemical; conditions: 50 mg irinotecan hydrochloride in 1 mL 25 wt % PHIL®, 99 mL 10 mM potassium phosphate buffer pH 4.0, room temperature
Description: The chromatographic analysis is performed with an Agilent Extended-C18 column (4.6 mm×50 mm, 3.5 μm). The mobile phase includes of 18% acetonitrile and 82% 10 mM potassium phosphate buffer solution pH 3 with 5% acetonitrile and 7.2 mM triethylamine delivered at 1 mL/min. The injection volume is 2 μL and the wavelength of the ultraviolet detector is 223 nm.

Canine Liver = test: In vivo evaluation of PHIL LV liquid embolic with irinotecan in canine liver
Description: A canine is anesthetized and a 6 Fr sheath is inserted into the femoral artery via a cutdown. A 6 Fr Glidecath is advanced retrograde into the celiac trunk and further into the hepatic artery. Following angiography, a Scepter balloon (4 mm×10 mm) is advanced through the Glidecath and into a branch of the hepatic artery. […] Blood is collected at 5, 15, 30, 60, and 120 minutes post-embolization for irinotecan quantification.

[4] = In vitro elution of sunitinib from PHIL® solution; type: physicochemical; conditions: 50 mg sunitinib malate in 1 mL 25 wt % PHIL®, 999 mL phosphate buffered saline
Description: The 1 mL of 25 wt % PHIL®/sunitinib solution is precipitated in 999 mL of a dissolution medium, including phosphate buffered saline.
The chromatographic analysis is performed with an Agilent Extended-C18 column (4.6 mm×50 mm, 3.5 μm). The mobile phase includes 22% acetonitrile and 78% 10 mM potassium phosphate buffer solution pH 3 with 5% acetonitrile and 7.2 mM triethylamine delivered at 1 mL/min. The injection volume is 3 μL and the wavelength of the ultraviolet detector is 429 nm. The calibration curve is prepared from 1 to 100 ppm of sunitinib.

[5] = In vitro elution of gemcitabine from PHIL® solution; type: physicochemical; conditions: 50 mg in 1 mL 25 wt % PHIL®, 99 mL PBS, room temperature
Description: The chromatographic analysis is performed with an Agilent Extended-C18 column (4.6 mm×50 mm, 3.5 μm). […] The injection volume is 3 μL and the wavelength of the ultraviolet detector is 275 nm.

[6] = In vitro elution of sorafenib from PHIL® solution; type: physicochemical; conditions: 50 mg in 1 mL 25 wt % PHIL®, 999 mL 70:30 acetonitrile/10 mM potassium phosphate buffer pH 4.3, room temperature
Description: The 1 mL of 25 wt % PHIL®/sorafenib solution is precipitated in 999 mL of a dissolution medium, including 70:30 acetonitrile/10 mM potassium phosphate buffer solution pH 4.3 at room temperature.
The chromatographic analysis is performed with an Agilent Extended-C18 column (4.6 mm×50 mm, 3.5 μm). The mobile phase includes 50% acetonitrile and 50% 10 mM potassium phosphate buffer solution pH 3 with 5% acetonitrile and 7.2 mM triethylamine delivered at 1 mL/min. The injection volume is 3 μL and the wavelength of the ultraviolet detector is 263 nm. The calibration curve is prepared from 1 to 100 ppm of sorafenib.

[7] = In vitro elution of carmustine from PHIL® solution; type: physicochemical; conditions: 50 mg in 1 mL 25 wt % PHIL®, 99 mL distilled water, room temperature
Description: Fifty mg of carmustine are dissolved in 1 mL of 25 wt % PHIL® solution, which includes triiodophenol-(lactide-co-glycolide) acrylate and hydroxyethyl methacrylate in dimethyl sulfoxide. The 1 mL of 25 wt % PHIL®/carmustine solution is precipitated in 99 mL of a dissolution medium, including distilled water at room temperature. At 2, 5, 9, 14, 20, 27, 35, 44, 54, 65 and 90 minutes, 1 mL of the supernatant is pipetted out and placed in a HPLC vial.
The concentration of carmustine in each sample is determined using an Agilent 1100 HPLC system. The chromatographic analysis is performed with a Primesep 100 column (3.2 mm×50 mm, 3 μm). The mobile phase includes 10% methanol and 90% 10 mM potassium phosphate buffer solution pH 3 with 5% acetonitrile and 7.2 mM triethylamine delivered at 1 mL/min. The injection volume is 3 μL and the wavelength of the ultraviolet detector is 230 nm. The calibration curve is prepared from 10 to 1000 ppm of carmustine. The amount of carmustine released and relative percentage are calculated from the concentration data.

[8] = 50 mg in 1 mL 25 wt % PHIL®, 99 mL distilled water, room temperature
Description: Fifty mg of cyclophosphamide are dissolved in 1 mL of 25 wt % PHIL® solution, which includes triiodophenol-(lactide-co-glycolide) acrylate and hydroxyethyl methacrylate in dimethyl sulfoxide. The 1 mL of 25 wt % PHIL®/cyclophosphamide solution is precipitated in 99 mL of a dissolution medium, including distilled water at room temperature. At 2, 5, 9, 14, 20, 27, 35, 44, 54, 65 and 90 minutes, 1 mL of the supernatant is pipetted out and placed in a HPLC vial.
The concentration of cyclophosphamide in each sample is determined using an Agilent 1100 HPLC system. The chromatographic analysis is performed with a Primesep 100 column (3.2 mm×50 mm, 3 μm). The mobile phase includes 5% acetonitrile and 95% HPLC water with 5% acetonitrile delivered at 1 mL/min. The injection volume is 25 μL and the wavelength of the ultraviolet detector is 197 nm. The calibration curve is prepared from 10 to 1000 ppm of cyclophosphamide. The amount of cyclophosphamide released and relative percentage are calculated from the concentration data.

[9] = In vitro elution of doxorubicin from PHIL® solution; type: physicochemical; conditions: 50 mg doxorubicin hydrochloride in 1 mL 25 wt % PHIL®, 99 mL 10 mM potassium phosphate buffer pH 4.0, room temperature
Description: Fifty mg of doxorubicin hydrochloride are dissolved in 1 mL of 25 wt % PHIL® solution, which includes triiodophenol-(lactide-co-glycolide) acrylate and hydroxyethyl methacrylate in dimethyl sulfoxide. The 1 mL of 25 wt % PHIL®/doxorubicin solution is precipitated in 99 mL of a dissolution medium, including 10 mM potassium phosphate buffer solution pH 4.0 at room temperature. At 2, 5, 9, 14, 20, 27, 35, 44, 54, 65 and 90 minutes, 1 mL of the supernatant is pipetted out and placed in a HPLC vial.
The concentration of doxorubicin in each sample is determined using an Agilent 1100 HPLC system. The chromatographic analysis is performed with an Agilent Extended-C18 column (4.6 mm×50 mm, 3.5 μm). The mobile phase includes 18% acetonitrile and 82% 10 mM potassium phosphate buffer solution pH 3 with 5% acetonitrile and 7.2 mM triethylamine delivered at 1 mL/min. The injection volume is 3 μL and the wavelength of the ultraviolet detector is 234 nm. The calibration curve is prepared from 10 to 1000 ppm of doxorubicin. The amount of doxorubicin released and relative percentage are calculated from the concentration data.

Q: What does the source list for `CC(=O)O[C@H]1C(=O)[C@@]2(C)[C@H]([C@H](OC(=O)c3ccccc3)[C@]3(O)C[C@H](OC(=O)[C@H](O)[C@@H](NC(=O)c4ccccc4)c4ccccc4)C(C)=C1C3(C)C)[C@]1(OC(C)=O)CO[C@@H]1C[C@@H]2O` [paclitaxel]?
A: total amount of paclitaxel eluted ([1]; first 90 minutes): 38 mg per 1 mL of PHIL®; sharp increase of paclitaxel eluted ([1]; within the first 9 minutes): 30 mg

Q: Which results are given for `O=C1[O][Pt]2([NH][C@@H]3CCCC[C@H]3[NH]2)[O]C1=O` [oxaliplatin]?
A: total amount of oxaliplatin eluted ([2]; first 80 minutes): 41 mg per 1 mL of PHIL®; sharp increase of oxaliplatin eluted ([2]; within the first 15 minutes): 37 mg

Q: Which results are given for `CCc1c2c(nc3ccc(OC(=O)N4CCC(N5CCCCC5)CC4)cc13)-c1cc3c(c(=O)n1C2)COC(=O)[C@]3(O)CC` [irinotecan, irinotecan hydrochloride]?
A: total amount of irinotecan eluted ([3]; first 90 minutes): 31 mg per 1 mL of PHIL®; sharp increase of irinotecan eluted ([3]; within the first 9 minutes): 24 mg; irinotecan in the blood, rapid rise to (Canine Liver; 1.5 mL PHIL LV loaded with 75 mg irinotecan into hepatic artery branch, blood 5-120 minutes post-embolization): about 300 ppb; tapering of irinotecan in the blood back to baseline (Canine Liver; 1.5 mL PHIL LV loaded with 75 mg irinotecan, blood collected to 120 minutes): beyond the timescale of the experiment

Q: With `CCN(CC)CCNC(=O)c1c(C)[nH]c(/C=C2\C(=O)Nc3ccc(F)cc32)c1C` [sunitinib, sunitinib malate] as the compound, how does the “total amount of sunitinib eluted” value ([4]; first 65 minutes) read?
A: 16 mg per 1 mL of PHIL®

Q: What about the “sharp increase of sunitinib eluted” value ([4]; within the first 2 minutes) of the same compound?
A: 11 mg

Q: For `Nc1ccn([C@@H]2O[C@H](CO)[C@@H](O)C2(F)F)c(=O)n1` [gemcitabine], which “total amount of gemcitabine eluted” value ([5]; first 90 minutes) is on record?
A: 43 mg per 1 mL of PHIL®

Q: And the “sharp increase of gemcitabine eluted” value ([5]; within the first 9 minutes)?
A: 34 mg

Q: With `CNC(=O)c1cc(Oc2ccc(NC(=O)Nc3ccc(Cl)c(C(F)(F)F)c3)cc2)ccn1` [sorafenib] as the compound, how does the “total amount of sorafenib eluted” value ([6]; first 90 minutes) read?
A: 42 mg per 1 mL of PHIL®

Q: And the “sharp increase of sorafenib eluted” value ([6]; within the first 2 minutes)?
A: 38 mg

Q: What does the source list for `O=NN(CCCl)C(=O)NCCCl` [carmustine]?
A: total amount of carmustine eluted ([7]; first 90 minutes): 26 mg per 1 mL of PHIL®; sharp increase of carmustine eluted ([7]; within the first 35 minutes): 21 mg

Q: What does the source list for `O=P1(N(CCCl)CCCl)NCCCO1` (centres unmarked) [cyclophosphamide]?
A: total amount of cyclophosphamide eluted ([8]; first 90 minutes): 38 mg per 1 mL of PHIL®; sharp increase of cyclophosphamide eluted ([8]; within the first 35 minutes): 35 mg

Q: For `COc1cccc2c1C(=O)c1c(O)c3c(c(O)c1C2=O)C[C@@](O)(C(=O)CO)C[C@@H]3O[C@H]1C[C@H](N)[C@H](O)[C@H](C)O1` [doxorubicin, doxorubicin hydrochloride], which “total amount of doxorubicin eluted” value ([9]; first 90 minutes) is on record?
A: 38 mg per 1 mL of PHIL®

Q: And the “sharp increase of doxorubicin eluted” value ([9]; within the first 14 minutes)?
A: 29 mg
